How the values were obtained:
human MetAP2 enzyme [1] = biological target: T1, human MetAP2 enzyme (Homo sapiens, UniProt P50579); experiment: MetAP2 enzyme assay, enzyme complexed with cobalt ions; details: MetAP2 Co pIC50, MetAP2 enzyme complexed with cobalt ions; Met-AMC substrate at Km
Experimental: DNA encoding the full-length sequence of human MetAP2 enzyme is amplified by PCR and cloned into a pFastBac expression vector (Invitrogen). Recombinant baculovirus incorporating the MetAP2 construct is generated by transposition using the Bac-to-Bac system (Invitrogen). The expression of recombinant protein is carried out by infection of Spodoptera frugiperda Sf9 cells (Invitrogen) in 5 L Wave Bioreactors (Wave Biotech). Recombinant protein is isolated from cellular extracts by binding to an SP Hitrap Fast Flow or SP Sepharose (Sigma) column, and the protein is eluted using a NaCl gradient. Partially purified extracts of MetAP2 are further purified by an AKTA FPLC over a Superdex-200 column (GE). The purity of MetAP2 protein is determined on denaturing SDS-PAGE gel.
The results for each well are expressed as percent inhibition and calculated using the equation:

human MetAP2 enzyme [2] = biological target: T1, human MetAP2 enzyme; experiment: MetAP2 enzyme assay, enzyme complexed with manganese ions; details: MetAP2 Mn pIC50, MetAP2 enzyme complexed with manganese ions; Met-AMC substrate at Km

T1 sequence (P50579 whole entry): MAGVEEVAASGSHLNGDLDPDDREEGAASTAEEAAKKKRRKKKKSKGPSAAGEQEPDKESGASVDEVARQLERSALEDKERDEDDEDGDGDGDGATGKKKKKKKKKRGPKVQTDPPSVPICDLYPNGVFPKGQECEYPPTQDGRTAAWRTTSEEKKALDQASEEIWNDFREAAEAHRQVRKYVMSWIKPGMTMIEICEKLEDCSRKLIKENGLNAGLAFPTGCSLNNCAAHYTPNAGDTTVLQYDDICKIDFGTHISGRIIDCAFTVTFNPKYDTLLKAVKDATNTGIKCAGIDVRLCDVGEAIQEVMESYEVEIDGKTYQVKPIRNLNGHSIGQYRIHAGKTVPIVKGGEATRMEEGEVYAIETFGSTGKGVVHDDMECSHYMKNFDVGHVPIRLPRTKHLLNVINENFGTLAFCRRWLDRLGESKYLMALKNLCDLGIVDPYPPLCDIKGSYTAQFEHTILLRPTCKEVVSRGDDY

IC50 (human MetAP2 enzyme [1])	IC50 (human MetAP2 enzyme [2])	SMILES
63.1 nM	12.6 nM	FC(F)(F)c1cc(-c2ccc3ccncc3c2)c2cn[nH]c2c1 [Example 26, 7-(6-(trifluoromethyl)-1H-indazol-4-yl)isoquinoline]
25.1 nM	3.16 nM	NC(=O)c1cccc(-c2cc(C(F)(F)F)cc3[nH]ncc23)c1 [Example 18, 3-(6-(trifluoromethyl)-1H-indazol-4-yl)benzamide]
1580 nM	100 nM	Cc1nccc(N)c1-c1cc(C(F)(F)F)cc2[nH]ncc12 [Example 252, 2-methyl-3-(6-(trifluoromethyl)-1H-indazol-4-yl)pyridin-4-amine]
126 nM	20 nM	Fc1c[nH]c2ncc(-c3cc(C(F)(F)F)cc4[nH]ncc34)cc12 [Example 339, 4-(3-fluoro-1H-pyrrolo[2,3-b]pyridin-5-yl)-6-(trifluoromethyl)-1H-indazole]
79.4 nM	20 nM	Cc1nn(C[C@@H]2CCC(=O)N2)c(C)c1-c1cc(C(F)(F)F)cc2[nH]ncc12 [Example 364, (5S)-5-((3,5-dimethyl-4-(6-(trifluoromethyl)-1H-indazol-4-yl)-1H-pyrazol-1-yl)methyl)pyrrolidin-2-one]
15.8 nM	3.98 nM	COc1ccc(CO)cc1-c1cc(C(F)(F)F)cc2[nH]ncc12 [Example 185, (4-methoxy-3-(6-(trifluoromethyl)-1H-indazol-4-yl)phenyl)methanol]
31.6 nM	6.31 nM	CN(C)CCOc1ccc(-c2cc(C(F)(F)F)cc3[nH]ncc23)cc1 [Example 280, N,N-dimethyl-2-(4-(6-(trifluoromethyl)-1H-indazol-4-yl)phenoxy)ethanamine]
398 nM	7.94 nM	O=C(NCCO)c1c[nH]c(=O)c(-c2cc(C(F)(F)F)cc3[nH]ncc23)c1 [Example 299, N-(2-hydroxyethyl)-6-oxo-5-(6-(trifluoromethyl)-1H-indazol-4-yl)-1,6-dihydropyridine-3-carboxamide]
31.6 nM	5.01 nM	Cc1ncccc1-c1cc(C(F)(F)F)cc2[nH]ncc12 [Example 50, 4-(2-methylpyridin-3-yl)-6-(trifluoromethyl)-1H-indazole]
63.1 nM	3.16 nM	FC(F)(F)c1cc(-c2cccnc2)c2cn[nH]c2c1 [Example 19, 4-(pyridin-3-yl)-6-(trifluoromethyl)-1H-indazole]
63.1 nM	15.8 nM	CC(C)Oc1ncccc1-c1cc(C(F)(F)F)cc2[nH]ncc12 [Example 143, 4-(2-isopropoxypyridin-3-yl)-6-(trifluoromethyl)-1H-indazole]
158 nM	12.6 nM	OCCc1cccc(-c2cc(C(F)(F)F)cc3[nH]ncc23)c1 [Example 106, 2-(3-(6-(trifluoromethyl)-1H-indazol-4-yl)phenyl)ethanol]
39.8 nM	10 nM	CCn1ncc(-c2cc(C(F)(F)F)cc3[nH]ncc23)c1C [Example 175, 4-(1-ethyl-5-methyl-1H-pyrazol-4-yl)-6-(trifluoromethyl)-1H-indazole]
79.4 nM	25.1 nM	COc1ccncc1-c1cc(C(F)(F)F)cc2[nH]ncc12 [Example 30, 4-(4-methoxypyridin-3-yl)-6-(trifluoromethyl)-1H-indazole]
631 nM	79.4 nM	CNC(=O)c1ccc(F)cc1-c1cc(C(F)(F)F)cc2[nH]ncc12 [Example 102, 4-fluoro-N-methyl-2-(6-(trifluoromethyl)-1H-indazol-4-yl)benzamide]
794 nM	20 nM	CN(C)C(=O)c1c[nH]c(=O)c(-c2cc(C(F)(F)F)cc3[nH]ncc23)c1 [Example 334, N,N-dimethyl-6-oxo-5-(6-(trifluoromethyl)-1H-indazol-4-yl)-1,6-dihydropyridine-3-carboxamide]
63.1 nM	15.8 nM	NC(=O)c1cc(-c2cc(C(F)(F)F)cc3[nH]ncc23)ccc1Cl [Example 63, 2-chloro-5-(6-(trifluoromethyl)-1H-indazol-4-yl)benzamide]
63.1 nM	15.8 nM	COc1nccc(-c2cc(C(F)(F)F)cc3[nH]ncc23)c1Cl [Example 124, 4-(3-chloro-2-methoxypyridin-4-yl)-6-(trifluoromethyl)-1H-indazole]
63.1 nM	10 nM	CCOc1ncccc1-c1cc(C(F)(F)F)cc2[nH]ncc12 [Example 133, 4-(2-ethoxypyridin-3-yl)-6-(trifluoromethyl)-1H-indazole]
501 nM	6.31 nM	CCNC(=O)Cn1c(=O)c(-c2cc(C(F)(F)F)cc3[nH]ncc23)cn(C)c1=O [Example 302, N-ethyl-2-(3-methyl-2,6-dioxo-5-(6-(trifluoromethyl)-1H-indazol-4-yl)-2,3-dihydropyrimidin-1(6H)-yl)acetamide]
31.6 nM	12.6 nM	Cc1nn(C)cc1-c1cc(C(F)(F)F)cc2[nH]ncc12 [Example 39, 4-(1,3-dimethyl-1H-pyrazol-4-yl)-6-(trifluoromethyl)-1H-indazole]
200 nM	6.31 nM	COc1cccc(-c2cc(C(F)(F)F)cc3[nH]ncc23)n1 [Example 91, 4-(6-methoxypyridin-2-yl)-6-(trifluoromethyl)-1H-indazole]
79.4 nM	6.31 nM	OCCNc1ncc(-c2cc(C(F)(F)F)cc3[nH]ncc23)cn1 [Example 209, 2-(5-(6-(trifluoromethyl)-1H-indazol-4-yl)pyrimidin-2-ylamino)ethanol]
50.1 nM	12.6 nM	Cc1nn(CCN(C)C)c(C)c1-c1cc(C(F)(F)F)cc2[nH]ncc12 [Example 219, 2-(3,5-dimethyl-4-(6-(trifluoromethyl)-1H-indazol-4-yl)-1H-pyrazol-1-yl)-N,N-dimethylethanamine]
79.4 nM	15.8 nM	Cc1nc(N2CCCC2)ccc1-c1cc(C(F)(F)F)cc2[nH]ncc12 [Example 384, 4-(2-methyl-6-(pyrrolidin-1-yl)pyridin-3-yl)-6-(trifluoromethyl)-1H-indazole]
100 nM	6.31 nM	NS(=O)(=O)c1ccc(-c2cc(C(F)(F)F)cc3[nH]ncc23)cc1F [Example 344, 2-fluoro-4-(6-(trifluoromethyl)-1H-indazol-4-yl)benzenesulfonamide]
794 nM	251 nM	Cc1nc2ccccn2c1-c1cc(C(F)(F)F)cc2[nH]ncc12 [Example 150, 4-(2-methylimidazo[1,2-a]pyridin-3-yl)-6-(trifluoromethyl)-1H-indazole]
63.1 nM	15.8 nM	FC(F)(F)c1cc(-c2c[nH]c3ncncc23)c2cn[nH]c2c1 [Example 155, 5-(6-(trifluoromethyl)-1H-indazol-4-yl)-7H-pyrrolo[2,3-d]pyrimidine]
126 nM	10 nM	COc1ncc(-c2cc(C(F)(F)F)cc3[nH]ncc23)c(N)n1 [Example 256, 2-methoxy-5-(6-(trifluoromethyl)-1H-indazol-4-yl)pyrimidin-4-amine]
25.1 nM	2.51 nM	FC(F)(F)c1cc(-c2cnn(Cc3ccccn3)c2)c2cn[nH]c2c1 [Example 72, 4-(1-(pyridin-2-ylmethyl)-1H-pyrazol-4-yl)-6-(trifluoromethyl)-1H-indazole]
